Laboratory results as given in US8906825B2, “Herbicidal compositions comprising 4-amino-3-chloro-5-fluoro-6-(4-chloro-2-fluoro-3-methoxyphenyl) pyridine-2-carboxylic acid or a derivative thereof and triazolopyrimidine sulfonamides” (Dow AgroSciences LLC, priority 2012, dated 2014).

Experiments:
[1] = test system: ECHCG (Echinochloa crusgalli (L.) Beauv., barnyardgrass); experiment: Postemergence foliar-applied herbicidal mixtures, direct seeded rice, greenhouse (Example I); format: in vivo
[2] = test system: CYPIR (Cyperus iria L., rice flatsedge); experiment: as above; format: in vivo

Row | SMILES | Visual Weed Control (%) - 27 DAA ECHCG Obs ([1]; Penoxsulam 4.38 gai/ha) | Visual Weed Control (%) - 27 DAA ECHCG Obs ([1]; Penoxsulam 8.75 gai/ha) | Visual Weed Control (%) - 20 DAA CYPIR Obs ([2]; Compound A Benzyl Ester 4.38 gae/ha) | Visual Weed Control (%) - 22 DAA CYPIR Obs ([2]; Compound A Benzyl Ester 8 gae/ha) | Visual Weed Control (%) - 20 DAA CYPIR Obs ([2]; Compound A Benzyl Ester 8.75 gae/ha) | Visual Weed Control (%) - 22 DAA CYPIR Obs ([2]; Compound A Benzyl Ester 16 gae/ha) | Visual Weed Control (%) - 20 DAA CYPIR Obs ([2]; Compound A Benzyl Ester 17.5 gae/ha)
1 | COc1cnc(OC)n2nc(NS(=O)(=O)c3c(OCC(F)F)cccc3C(F)(F)F)nc12 [Penoxsulam, 2-(2,2-difluoroethoxy)-N-(5,8-dimethoxy[1,2,4]triazolo[1,5-c]pyrimidin-2-yl)-6-(trifluoromethyl)benzenesulfonamide, reference compound] | 0% | 30% |  |  |  |  | 
2 | COc1c(Cl)ccc(-c2nc(C(=O)OCc3ccccc3)c(Cl)c(N)c2F)c1F [Compound A Benzyl Ester, benzyl ester of 4-amino-3-chloro-5-fluoro-6-(4-chloro-2-fluoro-3-methoxy-phenyl)pyridine-2-carboxylic acid] |  |  | 15% | 20% | 60% | 85% | 90%
